ChEMBL document CHEMBL1201862, “PubChem BioAssay data set” (2004)
Calls of active or inactive are those of the source.

Legend:
Assay type in all cases: functional
[1] = target: Mitogen-activated protein kinase 9 (Homo sapiens, UniProt P45984);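 further: value from a kinome panel profiling assay, MAPK9 panel entry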
[2] = target: Protein kinase C theta type (Homo sapiens, UniProt Q04759); assay: Navigating the Kinome. Panel member name: PRKCQ
[3] = target: Serine/threonine-protein kinase pim-1 (Homo sapiens, UniProt P11309)
[4] = target: Receptor-type tyrosine-protein kinase FLT3 (Homo sapiens, UniProt P36888);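 further: FLT3 was tested as one member of a kinome-wide kinase panel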
[5] = target: Tyrosine-protein kinase BTK (Homo sapiens, UniProt Q06187)
[6] = target: Dual specificity tyrosine-phosphorylation-regulated kinase 1B (Homo sapiens, UniProt Q9Y463); assay: Navigating the Kinome. Panel member name: DYRK1B
[7] = target: Glycogen synthase kinase-3 alpha (Homo sapiens, UniProt P49840);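 further: GSK3A result taken from a broad kinome-wide kinase panel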
[8] = target: Serine/threonine-protein kinase Chk1 (Homo sapiens, UniProt O14757);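 further: measured as one member of a kinome-wide kinase profiling panel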
[9] = target: Activin receptor type-1 (Homo sapiens, UniProt Q04771); assay: Navigating the Kinome. Panel member name: ACVR1
[10] = target: cAMP-dependent protein kinase catalytic subunit alpha (Homo sapiens, UniProt P17612)
[11] = target: High affinity nerve growth factor receptor (Homo sapiens, UniProt P04629);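 further: NTRK1 tested as one member of a kinome-wide profiling panel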
[12] = target: Aurora kinase A (Homo sapiens, UniProt O14965);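 further: value from the Navigating the Kinome kinase panel profiling, panel entry STK6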
[13] = target: Serine/threonine-protein kinase PAK 4 (Homo sapiens, UniProt O96013);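 further: value obtained within a kinome profiling panel in which PAK4 was one of the panel members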
[14] = target: Glycogen synthase kinase-3 beta (Homo sapiens, UniProt P49841);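 further: value comes from a broad kinome profiling panel, with GSK3B as the panel member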
[15] = target: Dual specificity mitogen-activated protein kinase kinase 1 (Homo sapiens, UniProt Q02750); assay: Navigating the Kinome. Panel member name: MAP2K1
[16] = target: Dual specificity protein kinase CLK2 (Homo sapiens, UniProt P49760)
[17] = target: Ribosomal protein S6 kinase alpha-3 (Homo sapiens, UniProt P51812);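 further: measured within a kinome-wide profiling panel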
[18] = target: Tyrosine-protein kinase receptor TYRO3 (Homo sapiens, UniProt Q06418);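 further: TYRO3 value obtained as one member of a kinome-wide profiling panel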
[19] = target: Leukocyte tyrosine kinase receptor (Homo sapiens, UniProt P29376); assay: Navigating the Kinome. Panel member name: LTK
[20] = target: ALK tyrosine kinase receptor (Homo sapiens, UniProt Q9UM73);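 further: ALK tested as one member of a kinase panel screen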
[21] = target: Rho-associated protein kinase 1 (Homo sapiens, UniProt Q13464);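 further: measured within a broad kinome-wide panel profiling many kinases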
[22] = target: Serine/threonine-protein kinase D3 (Homo sapiens, UniProt O94806);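 further: determined within a kinase panel screen, with PRKCN as the panel member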
[23] = target: Serine/threonine-protein kinase TAO1 (Homo sapiens, UniProt Q7L7X3)
[24] = target: Cyclin-dependent kinase 8 (Homo sapiens, UniProt P49336); assay: Navigating the Kinome. Panel member name: CDK8
[25] = target: Vascular endothelial growth factor receptor 1 (Homo sapiens, UniProt P17948);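 further: measured within a kinome-wide profiling panel, FLT1 as the panel member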
[26] = target: Platelet-derived growth factor receptor beta (Homo sapiens, UniProt P09619);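 further: value comes from a kinome panel, with PDGFRB tested as one panel member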
[27] = target: Serine/threonine-protein kinase Nek2 (Homo sapiens, UniProt P51955)
[28] = target: Dual specificity protein kinase CLK4 (Homo sapiens, UniProt Q9HAZ1)
[29] = target: LIM domain kinase 1 (Homo sapiens, UniProt P53667); assay: Navigating the Kinome. Panel member name: LIMK1
[30] = target: Platelet-derived growth factor receptor alpha (Homo sapiens, UniProt P16234); assay: Navigating the Kinome. Panel member name: PDGFRA
[31] = target: Tyrosine-protein kinase JAK2 (Homo sapiens, UniProt O60674);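 further: JAK2 tested as one member of a kinase panel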
[32] = target: Insulin-like growth factor 1 receptor (Homo sapiens, UniProt P08069); assay: Navigating the Kinome. Panel member name: IGF1R
[33] = target: Serine/threonine-protein kinase TBK1 (Homo sapiens, UniProt Q9UHD2); assay: Navigating the Kinome. Panel member name: TBK1
[34] = target: Aurora kinase B (Homo sapiens, UniProt Q96GD4)
[35] = target: Mitogen-activated protein kinase kinase kinase kinase 4 (Homo sapiens, UniProt O95819)
[36] = target: Cyclin-dependent kinase 9 (Homo sapiens, UniProt P50750);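 further: value from the CDK9 entry of a kinome-spanning kinase panel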
[37] = target: Focal adhesion kinase 1 (Homo sapiens, UniProt Q05397);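 further: measured as one member of a kinome panel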
[38] = target: Tyrosine-protein kinase Lck (Homo sapiens, UniProt P06239);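 further: lck was assayed as one member of a kinase panel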
[39] = target: Inhibitor of nuclear factor kappa-B kinase subunit epsilon (Homo sapiens, UniProt Q14164); assay: Navigating the Kinome. Panel member name: IKBKE
[40] = target: Cyclin-dependent kinase 7 (Homo sapiens, UniProt P50613);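 further: value comes from a kinome-wide kinase profiling panel in which CDK7 is one member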
[41] = target: Leucine-rich repeat serine/threonine-protein kinase 2 (Homo sapiens, UniProt Q5S007);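 further: value from a broad kinome-wide panel profiling study in which LRRK2 was one of the kinases tested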
[42] = target: Tyrosine-protein kinase JAK3 (Homo sapiens, UniProt P52333)
[43] = target: Activated CDC42 kinase 1 (Homo sapiens, UniProt Q07912); assay: Navigating the Kinome. Panel member name: ACK1
[44] = target: Vascular endothelial growth factor receptor 2 (Homo sapiens, UniProt P35968)
[45] = target: BDNF/NT-3 growth factors receptor (Homo sapiens, UniProt Q16620);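 further: NTRK2 measured as one member of a broad kinome-wide kinase profiling panel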
[46] = target: Calcium/calmodulin-dependent protein kinase type II subunit alpha (Homo sapiens, UniProt Q9UQM7); assay: Navigating the Kinome. Panel member name: CAMK2A
[47] = target: cAMP-dependent protein kinase catalytic subunit PRKX (Homo sapiens, UniProt P51817)
[48] = target: Tyrosine-protein kinase Fyn (Homo sapiens, UniProt P06241)
[49] = target: Fibroblast growth factor receptor 1 (Homo sapiens, UniProt P11362)
[50] = target: Dual specificity tyrosine-phosphorylation-regulated kinase 1A (Homo sapiens, UniProt Q13627);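 further: measured against DYRK1A as one member of a broad kinome profiling panel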
[51] = target: Macrophage-stimulating protein receptor (Homo sapiens, UniProt Q04912); assay: Navigating the Kinome. Panel member name: MST1R
[52] = target: Mitogen-activated protein kinase kinase kinase kinase 2 (Homo sapiens, UniProt Q12851);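 further: measured as one member of a kinome-wide kinase panel, with MAP4K2 as the panel entry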
[53] = target: Tyrosine-protein kinase ABL1 (Homo sapiens, UniProt P00519)
[54] = target: Macrophage colony-stimulating factor 1 receptor (Homo sapiens, UniProt P07333);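 further: value comes from the Navigating the Kinome screening panel, CSF1R member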
[55] = target: Death-associated protein kinase 3 (Homo sapiens, UniProt O43293);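 further: measured as one member of a kinome-wide profiling panel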
[56] = target: Casein kinase I isoform alpha (Homo sapiens, UniProt P48729)
[57] = target: Dual specificity mitogen-activated protein kinase kinase 2 (Homo sapiens, UniProt P36507); assay: Navigating the Kinome. Panel member name: MAP2K2
[58] = target: 5'-AMP-activated protein kinase catalytic subunit alpha-1 (Homo sapiens, UniProt Q13131)
[59] = target: Mitogen-activated protein kinase 8 (Homo sapiens, UniProt P45983);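 further: value comes from one member of a kinome-wide kinase profiling panel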
Mitogen-activated protein kinase 8, sequence (P45983 whole entry): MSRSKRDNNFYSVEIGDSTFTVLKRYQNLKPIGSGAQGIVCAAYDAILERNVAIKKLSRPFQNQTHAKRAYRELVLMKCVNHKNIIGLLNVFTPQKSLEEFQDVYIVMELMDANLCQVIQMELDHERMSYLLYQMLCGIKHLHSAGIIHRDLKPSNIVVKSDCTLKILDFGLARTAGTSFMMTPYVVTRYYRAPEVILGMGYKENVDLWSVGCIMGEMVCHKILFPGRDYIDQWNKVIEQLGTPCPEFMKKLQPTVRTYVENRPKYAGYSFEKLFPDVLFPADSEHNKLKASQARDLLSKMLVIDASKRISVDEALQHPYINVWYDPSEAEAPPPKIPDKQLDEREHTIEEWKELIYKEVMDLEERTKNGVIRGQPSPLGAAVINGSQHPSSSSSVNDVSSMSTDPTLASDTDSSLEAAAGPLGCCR

Tyrosine-protein kinase Lck, sequence (P06239 whole entry): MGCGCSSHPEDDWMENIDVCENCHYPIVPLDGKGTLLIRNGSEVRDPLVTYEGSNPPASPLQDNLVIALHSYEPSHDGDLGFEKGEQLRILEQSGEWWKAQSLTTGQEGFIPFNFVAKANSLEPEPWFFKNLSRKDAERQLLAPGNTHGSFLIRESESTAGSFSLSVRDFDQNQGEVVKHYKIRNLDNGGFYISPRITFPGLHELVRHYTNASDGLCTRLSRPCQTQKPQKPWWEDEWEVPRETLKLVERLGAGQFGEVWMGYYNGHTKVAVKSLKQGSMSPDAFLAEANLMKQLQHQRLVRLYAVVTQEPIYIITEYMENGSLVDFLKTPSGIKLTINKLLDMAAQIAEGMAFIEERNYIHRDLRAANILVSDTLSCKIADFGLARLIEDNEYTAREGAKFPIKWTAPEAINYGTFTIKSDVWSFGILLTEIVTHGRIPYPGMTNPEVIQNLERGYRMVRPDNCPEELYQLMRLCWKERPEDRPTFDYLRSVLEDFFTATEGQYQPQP
Death-associated protein kinase 3, sequence (O43293 whole entry, canonical isoform): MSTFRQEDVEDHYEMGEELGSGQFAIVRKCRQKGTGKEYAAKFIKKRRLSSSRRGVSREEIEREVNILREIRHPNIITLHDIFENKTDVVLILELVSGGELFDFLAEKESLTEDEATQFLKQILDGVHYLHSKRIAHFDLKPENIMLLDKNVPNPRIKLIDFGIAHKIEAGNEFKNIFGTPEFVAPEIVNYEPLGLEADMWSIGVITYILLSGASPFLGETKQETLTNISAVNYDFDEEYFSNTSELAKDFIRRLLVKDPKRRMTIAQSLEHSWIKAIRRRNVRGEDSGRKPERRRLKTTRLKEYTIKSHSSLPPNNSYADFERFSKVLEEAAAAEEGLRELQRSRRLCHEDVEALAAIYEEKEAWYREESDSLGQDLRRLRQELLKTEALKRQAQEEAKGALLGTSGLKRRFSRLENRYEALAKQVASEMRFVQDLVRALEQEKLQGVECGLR
Serine/threonine-protein kinase PAK 4, sequence (O96013 whole entry): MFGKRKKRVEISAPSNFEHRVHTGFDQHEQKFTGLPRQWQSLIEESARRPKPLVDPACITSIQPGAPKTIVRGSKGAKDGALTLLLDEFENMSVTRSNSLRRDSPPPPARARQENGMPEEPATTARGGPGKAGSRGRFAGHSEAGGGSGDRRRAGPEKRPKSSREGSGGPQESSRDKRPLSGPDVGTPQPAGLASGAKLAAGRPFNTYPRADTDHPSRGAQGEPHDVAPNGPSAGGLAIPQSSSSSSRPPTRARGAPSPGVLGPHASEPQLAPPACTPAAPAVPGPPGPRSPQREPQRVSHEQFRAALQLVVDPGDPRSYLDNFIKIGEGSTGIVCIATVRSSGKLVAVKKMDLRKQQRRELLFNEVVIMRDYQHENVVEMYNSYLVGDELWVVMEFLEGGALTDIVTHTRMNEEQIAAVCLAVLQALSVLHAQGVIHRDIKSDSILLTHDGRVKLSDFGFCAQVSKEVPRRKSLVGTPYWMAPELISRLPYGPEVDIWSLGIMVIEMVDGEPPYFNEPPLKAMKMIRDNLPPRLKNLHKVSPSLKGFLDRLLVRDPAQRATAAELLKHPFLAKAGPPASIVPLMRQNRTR
Mitogen-activated protein kinase kinase kinase kinase 2, sequence (Q12851 whole entry): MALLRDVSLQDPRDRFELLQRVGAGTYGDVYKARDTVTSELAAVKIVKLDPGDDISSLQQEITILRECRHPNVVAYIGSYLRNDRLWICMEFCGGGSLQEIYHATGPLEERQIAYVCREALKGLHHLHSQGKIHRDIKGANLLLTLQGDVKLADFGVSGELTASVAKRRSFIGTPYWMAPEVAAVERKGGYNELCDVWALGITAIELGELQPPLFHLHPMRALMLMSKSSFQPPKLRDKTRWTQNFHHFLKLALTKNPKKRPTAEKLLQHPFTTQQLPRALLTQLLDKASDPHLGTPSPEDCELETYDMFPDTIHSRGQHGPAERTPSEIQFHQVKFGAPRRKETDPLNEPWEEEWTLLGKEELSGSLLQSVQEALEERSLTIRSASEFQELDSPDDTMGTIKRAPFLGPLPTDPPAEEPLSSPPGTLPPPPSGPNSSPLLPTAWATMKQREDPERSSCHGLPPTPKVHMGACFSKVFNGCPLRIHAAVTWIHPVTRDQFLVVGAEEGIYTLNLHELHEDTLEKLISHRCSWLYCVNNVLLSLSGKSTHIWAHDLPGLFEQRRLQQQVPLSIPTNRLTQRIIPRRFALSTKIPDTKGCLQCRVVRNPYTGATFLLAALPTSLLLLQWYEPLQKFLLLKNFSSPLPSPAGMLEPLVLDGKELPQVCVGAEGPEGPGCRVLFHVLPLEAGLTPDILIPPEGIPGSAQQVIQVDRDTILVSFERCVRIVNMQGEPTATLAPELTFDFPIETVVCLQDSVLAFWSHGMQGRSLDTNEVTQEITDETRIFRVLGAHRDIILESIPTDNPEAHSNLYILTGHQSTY
Receptor-type tyrosine-protein kinase FLT3, sequence (P36888 whole entry): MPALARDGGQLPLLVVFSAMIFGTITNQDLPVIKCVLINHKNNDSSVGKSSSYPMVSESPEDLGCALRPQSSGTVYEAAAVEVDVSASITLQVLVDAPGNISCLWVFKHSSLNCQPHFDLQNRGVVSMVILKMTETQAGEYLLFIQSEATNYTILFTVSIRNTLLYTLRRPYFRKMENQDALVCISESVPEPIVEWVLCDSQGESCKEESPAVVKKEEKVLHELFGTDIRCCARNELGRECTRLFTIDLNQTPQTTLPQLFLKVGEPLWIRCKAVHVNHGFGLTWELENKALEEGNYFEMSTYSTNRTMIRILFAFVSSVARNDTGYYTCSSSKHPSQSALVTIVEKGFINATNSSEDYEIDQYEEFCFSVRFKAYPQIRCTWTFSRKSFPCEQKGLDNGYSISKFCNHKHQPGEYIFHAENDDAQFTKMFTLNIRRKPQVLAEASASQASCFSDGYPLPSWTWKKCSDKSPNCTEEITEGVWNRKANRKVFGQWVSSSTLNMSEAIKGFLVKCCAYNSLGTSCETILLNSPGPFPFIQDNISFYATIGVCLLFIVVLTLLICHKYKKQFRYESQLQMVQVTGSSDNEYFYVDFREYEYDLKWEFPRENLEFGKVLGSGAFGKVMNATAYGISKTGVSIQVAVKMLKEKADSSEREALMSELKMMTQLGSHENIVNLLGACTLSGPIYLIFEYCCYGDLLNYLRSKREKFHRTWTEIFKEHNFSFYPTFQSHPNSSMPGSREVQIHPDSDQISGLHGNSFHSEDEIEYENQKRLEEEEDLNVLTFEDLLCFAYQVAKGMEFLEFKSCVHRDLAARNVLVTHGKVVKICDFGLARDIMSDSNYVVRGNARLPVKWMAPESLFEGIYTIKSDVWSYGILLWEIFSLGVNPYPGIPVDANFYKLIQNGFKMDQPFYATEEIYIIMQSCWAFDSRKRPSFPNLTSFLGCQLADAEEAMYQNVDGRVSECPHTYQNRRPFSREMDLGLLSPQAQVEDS
Mitogen-activated protein kinase 9, sequence (P45984 whole entry): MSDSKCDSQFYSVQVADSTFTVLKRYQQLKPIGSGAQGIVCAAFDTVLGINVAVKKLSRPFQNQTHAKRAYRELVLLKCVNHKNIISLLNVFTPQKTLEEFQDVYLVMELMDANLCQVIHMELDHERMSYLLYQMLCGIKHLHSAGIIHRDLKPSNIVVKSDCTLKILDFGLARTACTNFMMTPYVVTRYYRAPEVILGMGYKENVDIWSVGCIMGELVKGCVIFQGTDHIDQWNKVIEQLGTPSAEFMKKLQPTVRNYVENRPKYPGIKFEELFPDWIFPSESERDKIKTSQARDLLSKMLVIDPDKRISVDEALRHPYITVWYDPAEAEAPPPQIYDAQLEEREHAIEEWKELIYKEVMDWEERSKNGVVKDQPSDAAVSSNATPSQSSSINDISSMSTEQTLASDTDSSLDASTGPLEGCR
Dual specificity protein kinase CLK2, sequence (P49760 whole entry): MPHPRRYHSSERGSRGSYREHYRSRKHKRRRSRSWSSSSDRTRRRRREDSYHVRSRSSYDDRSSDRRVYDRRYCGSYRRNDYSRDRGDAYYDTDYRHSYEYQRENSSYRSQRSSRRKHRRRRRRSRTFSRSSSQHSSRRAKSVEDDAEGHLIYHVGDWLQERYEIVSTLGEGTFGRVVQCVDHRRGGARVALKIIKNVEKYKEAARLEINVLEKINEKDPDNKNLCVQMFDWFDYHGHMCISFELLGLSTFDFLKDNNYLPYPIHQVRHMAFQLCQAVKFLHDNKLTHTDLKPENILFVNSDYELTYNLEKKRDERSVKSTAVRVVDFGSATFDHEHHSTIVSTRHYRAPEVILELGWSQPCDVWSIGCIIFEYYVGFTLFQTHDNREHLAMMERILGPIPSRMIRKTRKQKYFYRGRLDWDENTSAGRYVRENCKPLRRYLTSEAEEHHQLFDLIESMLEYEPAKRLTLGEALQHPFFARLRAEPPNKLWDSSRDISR

With `CCC(=O)Nc1ccc(C(=O)N2CCNCC2)c(O)c1` the Ki [1] was 398 nM (active), the Ki [2] was 794 nM (active) and the Ki [3] was 79.4 nM (active). For the same compound, the Ki [4] was 316 nM (active), the Ki [5] was 1580 nM (active) and the Ki [6] was 63.1 nM (active). For the same compound, the Ki [7] was 316 nM (active), the Ki [8] was 398 nM (active) and the Ki [9] was > 3980 nM (inactive). For the same compound, the Ki [10] was 100 nM (active), the Ki [11] was 126 nM (active) and the Ki [12] was 158 nM (active). The Ki [13] was 794 nM (active), the Ki [14] was 100 nM (active) and the Ki [15] was 398 nM (active). The Ki [16] was > 3980 nM (inactive), the Ki [17] was 501 nM (active) and the Ki [18] was 100 nM (active). For the same compound, the Ki [19] was 79.4 nM (active), the Ki [20] was 631 nM (active) and the Ki [21] was 1000 nM (active). For the same compound, the Ki [22] was 2000 nM (active), the Ki [23] was 2510 nM (active) and the Ki [24] was 251 nM (active). For the same compound, the Ki [25] was > 3980 nM (inactive), the Ki [26] was 316 nM (active) and the Ki [27] was 501 nM (active). The Ki [28] was 39.8 nM (active), the Ki [29] was 501 nM (active) and the Ki [30] was 1000 nM (active). For the same compound, the Ki [31] was 501 nM (active), the Ki [32] was 398 nM (active) and the Ki [33] was > 3160 nM (inactive). For the same compound, the Ki [34] was 501 nM (active), the Ki [35] was > 5010 nM (inactive) and the Ki [36] was 50.1 nM (active). The Ki [37] was 3980 nM (active), the Ki [38] was 1580 nM (active) and the Ki [39] was 2510 nM (active). The Ki [40] was 631 nM (active), the Ki [41] was > 2510 nM (inactive) and the Ki [42] was 631 nM (active). The Ki [43] was 631 nM (active), the Ki [44] was 1580 nM (active) and the Ki [45] was 794 nM (active). The Ki [46] was 158 nM (active), the Ki [47] was 631 nM (active) and the Ki [48] was 794 nM (active). For the same compound, the Ki [49] was 158 nM (active), the Ki [50] was 126 nM (active) and the Ki [51] was 631 nM (active). The Ki [52] was 398 nM (active), the Ki [53] was 1000 nM (active) and the Ki [54] was 251 nM (active). For the same compound, the Ki [55] was 794 nM (active), the Ki [56] was 794 nM (active) and the Ki [57] was 200 nM (active). The Ki [58] was 398 nM (active) and the Ki [59] was 631 nM (active).
